The record followed here is paper PMC5654082 (Malaria Journal, 2017).

The structures appear in SMILES notation. Counter-ions that a name gives are not always drawn.

The data set is described as follows: Maximum plasma concentration from in vivo pharmacokinetic studies after therapeutic dosing. Conditions: human, the literature Cmax (ng/mL) of Table 2 expressed in µM. From the text:
As Cmax the (geometric) mean or median maximum plasma concentrations obtained from previous in vivo pharmacokinetic studies after therapeutic dosing was used.

By Cmax is commonly meant the maximum level reached in the sampled fluid or tissue. Molecule `[H]/N=C(\N/C(=N/[H])Nc1ccc(Cl)cc1)NC(C)C` [Proguanil, proguanil hydrochloride] gave a peak concentration (Cmax) of 1.2 µM.
